These results are taken from patent US7468384B2, “Microbicidal composition” (Rohm and Haas Company, priority 2004, dated 2008).

Assay type in all cases: cell-based
Test [1] deals with Escherichia coli (E. coli—ATCC #8739). Kind of test: Synergy test, microtiter plate high resolution MIC assay, bacterium. Conditions: E. coli 8739, M9GY, 24 hours. The source says: (§1) One measure of synergism is the industrially accepted method described by Kull, F. C.; Eisman, P. C.; Sylwestrowicz, H. D. and Mayer, R. L., in Applied Microbiology 9:538-541 (1961), using the ratio determined by the formula: Qa/QA+Qb/QB=Synergy Index (“SI”) wherein: • QA=concentration of compound A (first component) in ppm, acting alone, which produced an end point (MIC of Compound A). • Qa=concentration of compound A in ppm, in the mixture, which produced an end point. • QB=concentration of compound B (second component) in ppm, acting alone, which produced an end point (MIC of Compound B). • Qb=concentration of compound B in ppm, in the mixture, which produced an end point.
(§2) When the sum of Qa/QA and Qb/QB is greater than one, antagonism is indicated. […] The lower the SI, the greater the synergy shown by that particular mixture. The minimum inhibitory concentration (MIC) of a microbicide is the lowest concentration tested under a specific set of conditions that prevents the growth of added microorganisms.
Synergy tests were conducted using standard microtiter plate assays with media designed for optimal growth of the test microorganism. Soybean Casein Digest Broth (Tryptic Soy Broth, TSB medium) or minimal salt medium supplemented with 0.2% glucose and 0.1% yeast extract (M9GY medium) was used for testing bacteria; Potato Dextrose Broth (PDB medium) was used for testing yeast and mold. […] High resolution MICs were determined by adding varying amounts of microbicide to one column of a microtitre plate and doing subsequent ten-fold dilutions using an automated liquid handling system to obtain a series of endpoints ranging from 2 ppm to 10,000 ppm active ingredient.
(§3) For MI combinations, the synergy of the combinations of the present invention was determined against two bacteria, Escherichia coli (E. coli—ATCC #8739) or Pseudomonas aeruginosa (P. aeruginosa—ATCC #15442), a yeast, Candida albicans (C. albicans—ATCC 10231), and a mold, Aspergillus niger (A. niger—ATCC 16404). The bacteria were used at a concentration of about 5×10^6 bacteria per mL and the yeast and mold at 5×10^5 fungi per mL. These microorganisms are representative of natural contaminants in many consumer and industrial applications. […] (bacteria).

Test [2] relates to Pseudomonas aeruginosa (P. aeruginosa—ATCC #15442). The description is as above. More on the design: key to SI (calculated synergy index) / SI (synergy index): SI = Qa/QA + Qb/QB (mixture vs. alone end-point concentrations). Conditions: for Qb (second component at end point, MIC): alone where Qa = 0.
Source text: as §1, §2
(§4) Synergy tests were conducted using standard microtiter plate assays with media designed for optimal growth of the test microorganism. Soybean Casein Digest Broth (Tryptic Soy Broth, TSB medium) or minimal salt medium supplemented with 0.2% glucose and 0.1% yeast extract (M9GY medium) was used for testing bacteria; Potato Dextrose Broth (PDB medium) was used for testing yeast and mold. In this method, a wide range of combinations of microbicides was tested by conducting high resolution MIC assays in the presence of various concentrations of MI. High resolution MICs were determined by adding varying amounts of microbicide to one column of a microtitre plate and doing subsequent ten-fold dilutions using an automated liquid handling system to obtain a series of endpoints ranging from 2 ppm to 10,000 ppm active ingredient.
as §3
(§5) For BIT combinations, the synergy of the combinations of the present invention was determined against a bacterium, Pseudomonas aeruginosa (P. aeruginosa—ATCC #15442), a yeast, Candida albicans (C. albicans—ATCC 10231), and a mold, Aspergillus niger (A. niger—ATCC 16404). The bacteria were used at a concentration of about 5×10^6 bacteria per mL and the yeast and mold at 5×10^5 fungi per mL. These microorganisms are representative of natural contaminants in many consumer and industrial applications. […] (yeast and mold) or 30° C. (bacteria).

For another test, the system named is S. aureus 6538. The test is described as above. Conditions: S. aureus 6538, TSB.
Source text: as §1, §2, §4

Test [3] deals with Aspergillus niger (A. niger—ATCC 16404). Kind of test: Synergy test, microtiter plate high resolution MIC assay, mold. More on the design: key to SI (calculated synergy index) / SI (synergy index): SI = Qa/QA + Qb/QB (mixture vs. alone end-point concentrations). Conditions: A. niger 16404, PDB; for Qb (second component at end point, MIC): alone where Qa = 0.
Source text: as §1, §2, §4, §3, §5

Test [4] relates to Candida albicans (C. albicans—ATCC 10231). Kind of test: Synergy test, microtiter plate high resolution MIC assay, yeast. Conditions: C. albicans 10231, PDB, 24 hours.
Source text: as §1, §2, §4, §3, §5

In the case of `OCC(O)COc1ccc(Cl)cc1` (centres unmarked) [Chlorphenesin], the “MIC of component acting alone (QA / QB)” value in test [1] was 2000 ppm; in test [2] (P. aeruginosa 15442, M9GY, 48 hours), 4000 ppm; in test [2] (P. aeruginosa 15442, TSB, 48 hours), 8000 ppm; in the test on S. aureus 6538 (48 hours), 5000 ppm; in test [3] (4 days) it was 2000 ppm; in test [4], 2000 ppm. Also, the Qb in test [2] (chlorphenesin concentration giving end point (MIC), alone or mixed with BIT, P. aeruginosa 15442, M9GY, 72 hours) is 8000 ppm; in test [3] (chlorphenesin concentration giving end point (MIC), alone or mixed with BIT, 1 week), 2000 ppm. The SI in test [2] (synergy index BIT + chlorphenesin, P. aeruginosa 15442, M9GY, 72 hours) was 1.00; in test [3] (synergy index BIT + chlorphenesin, 1 week), 1.00.

As for “Cocamidopropyl PG-dimonium chloride phosphate”, the “SI (calculated synergy index)” value in test [2] (Table 6, P. aeruginosa 15442, M9GY, 72 hours) is on record as 1.00; in test [2] (Table 6, P. aeruginosa 15442, TSB, 48 hours), 1.00; in the test with S. aureus 6538 (Table 6, 24 hours) it was 1.00; in test [3] (Table 6, 4 days), 1.00; in test [4] (Table 6), 1.00. The “Qb: end-point activity (MIC) of second component in the mixture (alone, QB, where Qa = 0)” value in test [2] (Table 6, P. aeruginosa 15442, M9GY, 72 hours, B = Cocamidopropyl PG-dimonium chloride phosphate) is recorded as 30 ppm; in test [2] (Table 6, P. aeruginosa 15442, TSB, 48 hours, B = Cocamidopropyl PG-dimonium chloride phosphate) it was 1000 ppm; in the test on S. aureus 6538 (Table 6, 24 hours, B = Cocamidopropyl PG-dimonium chloride phosphate), 30 ppm; in test [3] (Table 6, 4 days, B = Cocamidopropyl PG-dimonium chloride phosphate), 1000 ppm; in test [4] (Table 6, B = Cocamidopropyl PG-dimonium chloride phosphate), 100 ppm. Moreover, the “Qb (second component at end point, MIC)” value is listed as 40 ppm in test [2] (Table 22, Cocamidopropyl PG-dimonium chloride phosphate with BIT, P. aeruginosa 15442, M9GY, 72 hours) and 3000 ppm in test [3] (Table 22, Cocamidopropyl PG-dimonium chloride phosphate with BIT, 1 week). Besides, the “SI (synergy index)” value in test [2] (Table 22, P. aeruginosa 15442, M9GY, 72 hours) is listed as 1.00; in test [3] (Table 22, 1 week), 1.00.

Turning to “Linoleamidopropyl PG-dimonium chloride phosphate”, the “SI (calculated synergy index)” value is on record as 1.00 in test [2] (Table 5, P. aeruginosa 15442, M9GY, 48 hours); 1.00 in test [2] (Table 5, P. aeruginosa 15442, TSB, 48 hours); 1.00 in the test with S. aureus 6538 (Table 5, 48 hours); 1.00 in test [3] (Table 5, 7 days); 1.00 in test [4] (Table 5). The “Qb: end-point activity (MIC) of second component in the mixture (alone, QB, where Qa = 0)” value in test [2] (Table 5, P. aeruginosa 15442, M9GY, 48 hours, B = Linoleamidopropyl PG-dimonium chloride phosphate) is listed as 10000 ppm; in test [2] (Table 5, P. aeruginosa 15442, TSB, 48 hours, B = Linoleamidopropyl PG-dimonium chloride phosphate), 10000 ppm; in the test on S. aureus 6538 (Table 5, 48 hours, B = Linoleamidopropyl PG-dimonium chloride phosphate) it was 40 ppm; in test [3] (Table 5, 7 days, B = Linoleamidopropyl PG-dimonium chloride phosphate), 6000 ppm; in test [4] (Table 5, B = Linoleamidopropyl PG-dimonium chloride phosphate) it was 8000 ppm. In addition, the “Qb (second component at end point, MIC)” value in test [2] (Table 21, Linoleamidopropyl PG-dimonium chloride phosphate with BIT, P. aeruginosa 15442, M9GY, 48 hours) is on record as 10000 ppm; in test [3] (Table 21, Linoleamidopropyl PG-dimonium chloride phosphate with BIT, 4 days), 3000 ppm. The “SI (synergy index)” value was 1.00 in test [2] (Table 21, P. aeruginosa 15442, M9GY, 48 hours) and 1.00 in test [3] (Table 21, 4 days).
